Measurements from patent US8299262B2, “Pyridylmethyl-sulfonamide compounds” (BASF SE, priority 2007, dated 2012).
Like-named read-outs stand apart in the source and are kept apart here.

Assays:
Fusarium culmorum = assay: Synergistic mixtures, microtiter test, Fusarium culmorum (Use Example 27); format: cell-based; settings: single compound
Pyrenophora teres = assay: Synergistic mixtures, microtiter test, net blotch pathogen Pyrenophora teres (Use Example 29); format: cell-based; settings: single compound
Puccinia recondita = assay: Synergistic mixtures, greenhouse, preventative control of brown rust on wheat caused by Puccinia recondita (Use Example 34); format: in vivo; settings: single compound, untreated control 90% disease
Description: These percentages were converted into efficacies. An efficacy of 0 means that the growth level of the pathogens corresponds to that of the untreated control; an efficacy of 100 means that the pathogens were not growing.
The expected efficacies of active compound mixtures were determined using Colby's formula [R. S. Colby, Calculating synergistic and antagonistic responses of herbicide combinations, Weeds 15, 20-22 (1967)] and compared with the observed efficacies. E=x+y−x·y/100 Colby's formula • E expected efficacy, expressed in % of the untreated control, when using the mixture of the compounds A and B at the concentration a and b • x efficacy, expressed in % of the untreated control, when using compound A at a concentration of a • y efficacy, expressed in % of the untreated control, when using compound B at a concentration of b A) Microtiter Tests
The spray solutions were prepared in several steps:
The stock solution were prepared as follows: a mixture of acetone and/or dimethylsulfoxide and the wetting agent/emulsifier Wettol, which is based on ethoxylated alkylphenoles, in a relation (volume) solvent-emulsifier of 99 to 1 was added to 25 mg of the compound to give a total of 10 ml. Water was then added to total volume of 100 ml.
This stock solution was diluted with the described solvent-emulsifier-water mixture to the given concentration. The compounds pyraclostrobin, boscalid and epoxiconazole were used as commercial finished formulations and diluted with water to the stated concentration of the active compound.
The first two developed leaves of pot-grown wheat seedling were sprayed to run-off with an aqueous suspension, containing the concentration of active ingredient or their mixture as described below. The next day the plants were inoculated with spores of Puccinia recondita. To ensure the success the artificial inoculation, the plants were transferred to a humid chamber without light and a relative humidity of 95 to 99% and at temperatures between 20 and 24° C. for 24 h. Then, the plants were cultivated for 6 days in a greenhouse chamber at 20 to 24° C. and a relative humidity between 65 and 70%. The extent of fungal attack on the leaves was visually assessed as % diseased leaf area.

Phytophthora infestans = format: cell-based; settings: single compound
Alternaria solani = assay: Synergistic mixtures, microtiter test, early blight pathogen Alternaria solani (Use Example 24); format: cell-based; settings: single compound
Septoria tritici = assay: Synergistic mixtures, microtiter test, leaf blotch pathogen Septoria tritici (Use Example 26); format: cell-based; settings: single compound
Gaeumannomyces graminis = assay: Synergistic mixtures, microtiter test, Gaeumannomyces graminis (Use Example 30); format: cell-based; settings: single compound
Thielaviopsis basicola = assay: Synergistic mixtures, microtiter test, Thielaviopsis basicola (Use Example 31); format: cell-based; settings: single compound
Pyricularia oryzae [1] = format: cell-based; settings: single compound
Verticillium dahliae = settings: single compound
Pyricularia oryzae [2] = format: cell-based; settings: control =100%, day 7
Colletotrichum truncatum = assay: Synergistic mixtures, microtiter test, Colletotrichum truncatum (Use Example 28); format: cell-based; settings: single compound

O=C(Nc1ccccc1-c1ccc(Cl)cc1)c1cccnc1Cl [Boscalid, reference compound]
Observed efficacy (%) (Fusarium culmorum; 16 ppm): 1% | Observed efficacy (%) (Pyrenophora teres; 0.25 ppm): 49% | Observed efficacy (%) (Puccinia recondita; 0.25 ppm): 0% | Observed efficacy (%) (Puccinia recondita; 1 ppm): 0% | Observed efficacy (%) (Puccinia recondita; 4 ppm): 0% | Observed efficacy (%) (Puccinia recondita; 16 ppm): 0% | Observed efficacy (%) (Phytophthora infestans; 0.016 ppm): 5% | Observed efficacy (%) (Alternaria solani; 0.063 ppm): 23%

O=C1C2CC=CCC2C(=O)N1SC(Cl)(Cl)Cl (stereo not drawn) [Captan, reference compound]
Observed efficacy (%) (Septoria tritici; 1 ppm): 31% | Observed efficacy (%) (Fusarium culmorum; 4 ppm): 39% | Observed efficacy (%) (Gaeumannomyces graminis; 0.016 ppm): 12% | Observed efficacy (%) (Gaeumannomyces graminis; 0.063 ppm): 42% | Observed efficacy (%) (Pyrenophora teres; 0.016 ppm): 5% | Observed efficacy (%) (Pyrenophora teres; 0.063 ppm): 16% | Observed efficacy (%) (Thielaviopsis basicola; 0.25 ppm): 40% | Observed efficacy (%) (Phytophthora infestans; 0.004 ppm): 0% | Observed efficacy (%) (Phytophthora infestans; 0.063 ppm): 7% | Observed efficacy (%) (Phytophthora infestans; 0.25 ppm): 3% | Observed efficacy (%) (Pyricularia oryzae [1]; 0.063 ppm): 0% | Observed efficacy (%) (Verticillium dahliae; 0.25 ppm): 26%

N#Cc1c(Cl)c(Cl)c(Cl)c(C#N)c1Cl [Chlorothalonil, reference compound]
Observed efficacy (%) (Fusarium culmorum; 4 ppm): 5% | Observed efficacy (%) (Gaeumannomyces graminis; 0.004 ppm): 0% | Observed efficacy (%) (Gaeumannomyces graminis; 0.016 ppm): 9% | Observed efficacy (%) (Thielaviopsis basicola; 1 ppm): 56% | Observed efficacy (%) (Phytophthora infestans; 0.004 ppm): 4% | Observed efficacy (%) (Phytophthora infestans; 0.25 ppm): 10% | Observed efficacy (%) (Pyricularia oryzae [1]; 0.063 ppm): 0% | Observed efficacy (%) (Verticillium dahliae; 1 ppm): 40%

Fc1ccc([C@]2(Cn3cncn3)O[C@H]2c2ccccc2Cl)cc1 [Epoxiconazol, reference compound]
Observed efficacy (%) (Gaeumannomyces graminis; 0.004 ppm): 2% | Observed efficacy (%) (Puccinia recondita; 0.063 ppm): 0% | Observed efficacy (%) (Puccinia recondita; 0.25 ppm): 0% | Observed efficacy (%) (Puccinia recondita; 1 ppm): 33% | Observed efficacy (%) (Phytophthora infestans; 0.001 ppm): 0% | Observed efficacy (%) (Pyricularia oryzae [1]; 0.063 ppm): 0%

COc1cc(CNS(=O)(=O)c2ccc(Oc3ccccn3)cc2)ccn1 [Example 7]
Observed efficacy (%) (Fusarium culmorum; 16 ppm): 7% | Observed efficacy (%) (Gaeumannomyces graminis; 0.063 ppm): 9% | Observed efficacy (%) (Gaeumannomyces graminis; 0.25 ppm): 51% | Observed efficacy (%) (Pyrenophora teres; 0.25 ppm): 17% | Observed efficacy (%) (Pyrenophora teres; 1 ppm): 28% | Observed efficacy (%) (Phytophthora infestans; 0.016 ppm): 11% | growth in [%] at 31 ppm (Pyricularia oryzae [2]): 53% | Observed efficacy (%) (Alternaria solani; 0.016 ppm): 11% | Observed efficacy (%) (Colletotrichum truncatum; 4 ppm): 20% | Observed efficacy (%) (Pyricularia oryzae [1]; 0.063 ppm): 1%

O=S(=O)(NCc1ccncc1)c1ccc(Oc2ccc(C(F)(F)F)cn2)cc1 [Example 9]
Observed efficacy (%) (Septoria tritici; 4 ppm): 2% | Observed efficacy (%) (Fusarium culmorum; 16 ppm): 0% | Observed efficacy (%) (Gaeumannomyces graminis; 0.25 ppm): 5% | Observed efficacy (%) (Puccinia recondita; 16 ppm): 0% | Observed efficacy (%) (Thielaviopsis basicola; 1 ppm): 11%

COc1cc(CNS(=O)(=O)c2ccc(Oc3ccc(C(F)(F)F)cn3)cc2)ccn1 [Example 12]
Observed efficacy (%) (Septoria tritici; 4 ppm): 47% | Observed efficacy (%) (Fusarium culmorum; 16 ppm): 3% | Observed efficacy (%) (Gaeumannomyces graminis; 0.016 ppm): 30% | Observed efficacy (%) (Pyrenophora teres; 0.063 ppm): 25% | Observed efficacy (%) (Puccinia recondita; 0.25 ppm): 0% | Observed efficacy (%) (Puccinia recondita; 1 ppm): 22% | Observed efficacy (%) (Alternaria solani; 0.063 ppm): 6% | Observed efficacy (%) (Colletotrichum truncatum; 16 ppm): 50% | Observed efficacy (%) (Pyricularia oryzae [1]; 0.063 ppm): 45%

COc1cc(CNS(=O)(=O)c2ccc(Oc3ncccc3C(F)(F)F)cc2)ccn1 [Example 13]
Observed efficacy (%) (Septoria tritici; 4 ppm): 39% | Observed efficacy (%) (Fusarium culmorum; 16 ppm): 2% | Observed efficacy (%) (Gaeumannomyces graminis; 0.016 ppm): 6% | Observed efficacy (%) (Gaeumannomyces graminis; 0.063 ppm): 31% | Observed efficacy (%) (Pyrenophora teres; 0.063 ppm): 19% | Observed efficacy (%) (Phytophthora infestans; 0.25 ppm): 16% | Observed efficacy (%) (Colletotrichum truncatum; 4 ppm): 26%

Cc1nccc(CNS(=O)(=O)c2ccc(Oc3ncccc3C(F)(F)F)cc2)c1C [Example 28]
Observed efficacy (%) (Septoria tritici; 4 ppm): 29% | Observed efficacy (%) (Fusarium culmorum; 16 ppm): 1% | Observed efficacy (%) (Gaeumannomyces graminis; 0.063 ppm): 29% | Observed efficacy (%) (Pyrenophora teres; 0.25 ppm): 4% | Observed efficacy (%) (Puccinia recondita; 1 ppm): 0% | Observed efficacy (%) (Thielaviopsis basicola; 16 ppm): 23% | Observed efficacy (%) (Phytophthora infestans; 0.016 ppm): 10% | Observed efficacy (%) (Colletotrichum truncatum; 4 ppm): 20% | Observed efficacy (%) (Pyricularia oryzae [1]; 0.063 ppm): 27% | Observed efficacy (%) (Pyricularia oryzae [1]; 0.25 ppm): 52%
